In one assay the target is sodium channel SCN5a (Homo sapiens, UniProt Q14524). Format: cell-based.
The next assay deals with T1, Kv1.3 (Homo sapiens, UniProt P22001).
T1 construct: expressed in transfected cells
In words: FMP membrane potential assay on Kv1.3, suspension cells. Format: cell-based. Conditions: 100 nM Margatoxin, FMP dye.

Setting [1] is: 110 min 1° C. (after 10 min room temperature).

“And” between values parts separate entries of the source, which are not always exact repeats. Equal entries are not always repeated.

Two compounds from patent publication US20070281330A1, “Method for Examining the Activity of Ion Channels” (priority 2004, published 2007) can be followed below.

Sequence of sodium channel SCN5a (Q14524 whole entry, looked up): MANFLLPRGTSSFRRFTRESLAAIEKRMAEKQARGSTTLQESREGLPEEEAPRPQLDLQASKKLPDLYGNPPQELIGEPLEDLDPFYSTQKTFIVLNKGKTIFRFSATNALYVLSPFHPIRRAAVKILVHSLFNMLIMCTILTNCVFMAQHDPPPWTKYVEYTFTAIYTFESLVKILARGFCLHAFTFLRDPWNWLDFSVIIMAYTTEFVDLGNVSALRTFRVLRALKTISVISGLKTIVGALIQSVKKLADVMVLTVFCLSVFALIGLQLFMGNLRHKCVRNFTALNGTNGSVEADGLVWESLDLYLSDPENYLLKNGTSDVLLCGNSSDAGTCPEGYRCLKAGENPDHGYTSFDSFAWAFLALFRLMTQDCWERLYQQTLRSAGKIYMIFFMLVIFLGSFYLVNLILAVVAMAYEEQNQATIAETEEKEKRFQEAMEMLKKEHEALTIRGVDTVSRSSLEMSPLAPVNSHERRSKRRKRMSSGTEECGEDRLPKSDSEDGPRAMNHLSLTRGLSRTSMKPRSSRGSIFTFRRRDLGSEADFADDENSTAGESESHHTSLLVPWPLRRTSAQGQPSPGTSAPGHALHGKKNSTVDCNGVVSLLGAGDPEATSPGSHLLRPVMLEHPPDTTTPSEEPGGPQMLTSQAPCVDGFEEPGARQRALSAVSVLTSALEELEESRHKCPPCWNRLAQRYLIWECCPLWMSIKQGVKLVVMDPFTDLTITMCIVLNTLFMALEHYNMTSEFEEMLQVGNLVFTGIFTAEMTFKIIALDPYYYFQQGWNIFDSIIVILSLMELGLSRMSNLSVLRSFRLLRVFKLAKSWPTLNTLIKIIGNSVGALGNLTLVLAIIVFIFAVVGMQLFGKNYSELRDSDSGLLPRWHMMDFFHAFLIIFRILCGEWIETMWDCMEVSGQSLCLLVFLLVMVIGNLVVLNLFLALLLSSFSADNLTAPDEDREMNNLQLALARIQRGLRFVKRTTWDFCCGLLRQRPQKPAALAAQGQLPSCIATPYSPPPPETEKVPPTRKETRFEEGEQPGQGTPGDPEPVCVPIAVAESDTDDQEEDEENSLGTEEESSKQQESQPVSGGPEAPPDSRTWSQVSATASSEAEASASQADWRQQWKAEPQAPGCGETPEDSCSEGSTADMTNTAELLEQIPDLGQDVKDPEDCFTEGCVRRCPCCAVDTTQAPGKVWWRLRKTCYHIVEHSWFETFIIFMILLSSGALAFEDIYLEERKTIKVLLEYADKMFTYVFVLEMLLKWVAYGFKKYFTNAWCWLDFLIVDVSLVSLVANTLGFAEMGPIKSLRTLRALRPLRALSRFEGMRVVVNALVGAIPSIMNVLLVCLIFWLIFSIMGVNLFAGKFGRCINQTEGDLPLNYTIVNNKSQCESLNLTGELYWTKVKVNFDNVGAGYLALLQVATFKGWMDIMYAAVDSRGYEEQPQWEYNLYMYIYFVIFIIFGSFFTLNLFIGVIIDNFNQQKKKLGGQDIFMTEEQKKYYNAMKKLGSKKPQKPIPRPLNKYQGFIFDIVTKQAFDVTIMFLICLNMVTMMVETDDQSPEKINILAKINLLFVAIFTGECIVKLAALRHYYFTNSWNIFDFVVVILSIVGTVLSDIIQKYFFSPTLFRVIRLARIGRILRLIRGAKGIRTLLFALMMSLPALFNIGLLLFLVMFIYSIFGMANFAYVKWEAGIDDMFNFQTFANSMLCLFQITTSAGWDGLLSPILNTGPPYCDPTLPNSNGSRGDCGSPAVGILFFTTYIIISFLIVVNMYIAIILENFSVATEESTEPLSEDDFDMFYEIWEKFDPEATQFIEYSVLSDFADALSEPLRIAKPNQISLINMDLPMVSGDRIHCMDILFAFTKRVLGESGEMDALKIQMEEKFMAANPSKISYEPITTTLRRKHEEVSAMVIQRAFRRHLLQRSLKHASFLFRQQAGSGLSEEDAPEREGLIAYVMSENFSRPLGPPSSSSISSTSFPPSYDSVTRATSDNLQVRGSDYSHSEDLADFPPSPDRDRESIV
T1 sequence (P22001 whole entry): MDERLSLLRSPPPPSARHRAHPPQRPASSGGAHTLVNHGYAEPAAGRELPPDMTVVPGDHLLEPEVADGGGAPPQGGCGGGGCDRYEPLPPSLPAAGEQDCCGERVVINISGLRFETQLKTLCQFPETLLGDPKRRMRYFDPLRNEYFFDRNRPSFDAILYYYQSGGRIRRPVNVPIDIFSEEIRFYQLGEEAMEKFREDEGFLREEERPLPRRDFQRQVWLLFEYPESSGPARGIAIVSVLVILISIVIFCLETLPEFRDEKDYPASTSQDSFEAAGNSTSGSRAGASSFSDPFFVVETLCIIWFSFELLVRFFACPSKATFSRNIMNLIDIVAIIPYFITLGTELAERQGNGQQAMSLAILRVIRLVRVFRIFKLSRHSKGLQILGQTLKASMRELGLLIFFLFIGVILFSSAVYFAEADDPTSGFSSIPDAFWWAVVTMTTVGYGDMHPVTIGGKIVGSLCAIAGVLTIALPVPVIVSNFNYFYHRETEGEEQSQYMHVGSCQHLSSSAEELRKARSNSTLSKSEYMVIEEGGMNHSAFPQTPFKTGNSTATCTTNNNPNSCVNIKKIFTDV

As for `NC1=N[C@H](O)[C@H]2[C@H]3O[C@]4(O)O[C@@H]([C@@H](O)[C@@]2(N1)[C@@H]4O)[C@]3(O)CO` [TTX, tetrodotoxin], the “18° C. [RFUs]” value on sodium channel SCN5a is 4636.0 RFUs and 5379.0 RFUs and 2882.0 RFUs and 3816.0 RFUs and 4067.0 RFUs and 4401.0 RFUs and 5620.0 RFUs and 5034.0 RFUs.
With Margatoxin, at Kv1.3 (10 min room temperature), the “Increase [%]” value was 3% and 2.93%; the “[rfu]” value is given as 22479.50 rfu. At Kv1.3 (setting [1]), the “Increase [%]” value is 68% and 68.04%; the “[rfu]” value was 47474.00 rfu.
